Like-named read-outs stand apart in the source and are kept apart here. Some results are limits rather than exact numbers.

Consider nine compounds from US9126982B2, “Heterocyclic compounds, medicaments containing them, use and processes for the preparation thereof” (Boehringer Ingelheim International GmbH, priority 2013, dated 2015).

For one data set, the system named is Mouse kidney M-1 cells. Put plainly: Ussing Chamber assay, short circuit current in M-1 cells. To be noted: inhibition of amiloride sensitive short circuit current (I_sc), compounds applied to the apical solution, 37° C. It counts as cell-based. The protocol: Ussing Chamber: Mouse kidney M-1 cells were cultivated in DMEM containing 5% FCS and 5 μM dexamethasone for 10 to 12 days on polyester transwell filters. Filters were inserted into a teflon-coated well-plate which fit into the ussing chamber system. Prior to measurement the medium of M-1 cells was replaced with Caco-2 transport buffer (Invitrogen, Germany). During measurements, the Ussing chamber temperature was kept at 37° C. Short circuit currents (I_sc) were measured in the voltage-clamp mode using an amplifier with the software package Lab View for data acquisition and analysis. The transepithelial electrical resistance (TEER) was determined by the application of voltage steps of ±5 mV every 5 sec. Compounds were administered at a final concentration of 3 μM or at increasing concentrations (e.g. 1-3-10 μM) to the apical solution. At the end of each experiment the amiloride sensitive I_SC was measured by adding 3 μM amiloride to the apical compartment. Results are expressed as inhibition in percent of the amiloride effect or as IC50.
With the example compounds given above, the following IC50 values given in Table 1 were determined in the Ussing Chamber assay: […]

Data set [1] can be described thus: Permeability and efflux in CALU-3 cells. In kind it is in vitro ADME. To be noted: human, Papp basal-to-apical, CALU-3 monolayers, pH 7.4, 37° C., 10 μM compound, read-out: P BA. As to the method:
Permeability and Efflux in CALU-3 Cells:
Permeability measurements across polarized, confluent CALU-3 cell monolayers grown on permeable filter supports are used to provide information on the potential of a compound to pass the lung epithelium.
CALU-3 cells (1-2×10^5 cells/1 cm^2 area) are seeded on filter inserts (Costar transwell polycarbonate filters, 0.4 μm pore size) and cultured (DMEM) for 10-12 days until tight monolayers are formed. Compounds of interest are dissolved in appropriate solvent (DMSO, 10 mM stock solution). Stock solutions are diluted with HTP-4 buffer (128.13 mM NaCl, 5.36 mM KCl, 1 mM MgSO4, 1.8 mM CaCl2, 4.17 mM NaHCO3, 1.19 mM Na2HPO4×7H2O, 0.41 mM NaH2PO4×H2O, 15 mM HEPES, 20 mM glucose, 0.25% BSA, pH 7.4) to prepare the transport solutions (10 μM compound, final DMSO<=0.5%). The transport solution (TL) is applied to the apical or basolateral donor side for measuring A-B or B-A permeability (3 filter replicates), respectively. The receiver side contains the same buffer as the donor side. After 30 min of accommodation, samples are collected at the start t0=0 min and at the end of the experiment tn=90 min from the donor and at 0, 30, 60, and 90 min also from the receiver chamber. Volume removed is replenished by HTP-4 buffer. The compound concentration in the samples is measured by HPLC-MS/MS or scintillation counting. The permeability coefficient (Papp) and efflux ratio are calculated according to: Papp [cm/s]=(concentration receiver [nM]*volume receiver [mL]/time interval [sec])*(1/filter area)*(1/donor concentration [nM]) Efflux ratio or Uptake ratio=Papp,BA/Papp,AB

By IC50 is commonly meant the concentration that gives 50% inhibition. A low value points to greater potency. In turn, `COC(=O)CN(C)[C@H]1CC[C@H](N/C(N)=N/C(=O)c2nc(Cl)c(N)nc2N)CC1` [Example 1.1] returned an IC50 with Mouse kidney M-1 cells of 7 nM.

Regarding `N/C(=N\C(=O)c1nc(Cl)c(N)nc1N)N[C@H]1CC[C@H](NC(=O)CN(CC(=O)O)CC(=O)O)CC1` [Example 2.1], in the data set with Mouse kidney M-1 cells, the midpoint of inhibition, the IC50, lay at 304 nM.

In the data set on Mouse kidney M-1 cells, `C[N+]1(C)CCN(CC(=O)N[C@H]2CC[C@H](N/C(N)=N/C(=O)c3nc(Cl)c(N)nc3N)CC2)CC1.[I-]` [Example 3.1] displayed an IC50 of 25 nM. The Papp B→A at 90 min, 10 μM in data set [1] (exponent E−07) worked out at 0.229 ×10⁻⁶ cm/s. With `CN(C)CCCN[C@H]1CC[C@H](N/C(N)=N/C(=O)c2nc(Cl)c(N)nc2N)CC1` [Example 4.1], in the data set on Mouse kidney M-1 cells, the midpoint of inhibition, the IC50, lay at 31 nM. In data set [1] (exponent E−06 printed in the row below (r3)), the Papp B→A at 90 min, 10 μM is less than 2.72 ×10⁻⁶ cm/s. Turning to `CC(C)(C)OC(=O)c1ccc(C(=O)N[C@H]2CC[C@H](N/C(N)=N/C(=O)c3nc(Cl)c(N)nc3N)CC2)cc1` [Example 5.1], in the data set on Mouse kidney M-1 cells, the IC50 is 10 nM. `C[C@@H](N)C(=O)N[C@H]1CC[C@H](N/C(N)=N/C(=O)c2nc(Cl)c(N)nc2N)CC1.O=C(O)C(F)(F)F` [Example 6.1]: the IC50 in the data set on Mouse kidney M-1 cells is 34 nM. For the same compound, the Papp B→A at 90 min, 10 μM in data set [1] (exponent E−07) was found to be 0.225 ×10⁻⁶ cm/s. The like results for `N/C(=N\C(=O)c1nc(Cl)c(N)nc1N)N[C@H]1CC[C@H](N)CC1` [Example 6.2] were, in that order, 6 nM and less than 0.272 ×10⁻⁶ cm/s. The compound `N=C(N)N[C@H]1CC[C@H](N/C(N)=N/C(=O)c2nc(Cl)c(N)nc2N)CC1` [Example 7] came in with an IC50 with Mouse kidney M-1 cells of 10 nM.

In the data set with Mouse kidney M-1 cells, `CN1CCN(S(=O)(=O)N[C@H]2CC[C@H](N/C(N)=N/C(=O)c3nc(Cl)c(N)nc3N)CC2)CC1.O=C(O)C(F)(F)F` [Example 8] returned an IC50 of 25 nM. Further, the Papp B→A at 90 min, 10 μM in data set [1] (exponent E−07) is 0.354 ×10⁻⁶ cm/s.
